According to ChEMBL document CHEMBL3407416, “Discovery of (R)-8-(1-(3,5-difluorophenylamino)ethyl)-N,N-dimethyl-2-morpholino-4-oxo-4H-chromene-6-carboxamide (AZD8186): a potent and selective inhibitor of PI3Kβ and PI3Kδ for the treatment of PTEN-deficient cancers” (J Med Chem, 2015):

How the values were obtained:
[1] = target: Phosphatidylinositol 4,5-bisphosphate 3-kinase catalytic subunit gamma isoform (Homo sapiens, UniProt P48736); experiment: Inhibition of human recombinant PI3Kgamma using PIP2 by Kinase-Glo Plus assay
[2] = Fraction unbound in mouse plasma; format: ADME, cell-free
[3] = Lipophilicity, log D of the compound at pH 7.4 by shake-flask method; format: physicochemical; details: buffer
[4] = target: T1, Phosphatidylinositol 4,5-bisphosphate 3-kinase catalytic subunit delta isoform (Homo sapiens, UniProt O00329); experiment: Inhibition of human recombinant PI3Kdelta using PIP2 by Kinase-Glo Plus assay
T1 sequence (O00329 whole entry): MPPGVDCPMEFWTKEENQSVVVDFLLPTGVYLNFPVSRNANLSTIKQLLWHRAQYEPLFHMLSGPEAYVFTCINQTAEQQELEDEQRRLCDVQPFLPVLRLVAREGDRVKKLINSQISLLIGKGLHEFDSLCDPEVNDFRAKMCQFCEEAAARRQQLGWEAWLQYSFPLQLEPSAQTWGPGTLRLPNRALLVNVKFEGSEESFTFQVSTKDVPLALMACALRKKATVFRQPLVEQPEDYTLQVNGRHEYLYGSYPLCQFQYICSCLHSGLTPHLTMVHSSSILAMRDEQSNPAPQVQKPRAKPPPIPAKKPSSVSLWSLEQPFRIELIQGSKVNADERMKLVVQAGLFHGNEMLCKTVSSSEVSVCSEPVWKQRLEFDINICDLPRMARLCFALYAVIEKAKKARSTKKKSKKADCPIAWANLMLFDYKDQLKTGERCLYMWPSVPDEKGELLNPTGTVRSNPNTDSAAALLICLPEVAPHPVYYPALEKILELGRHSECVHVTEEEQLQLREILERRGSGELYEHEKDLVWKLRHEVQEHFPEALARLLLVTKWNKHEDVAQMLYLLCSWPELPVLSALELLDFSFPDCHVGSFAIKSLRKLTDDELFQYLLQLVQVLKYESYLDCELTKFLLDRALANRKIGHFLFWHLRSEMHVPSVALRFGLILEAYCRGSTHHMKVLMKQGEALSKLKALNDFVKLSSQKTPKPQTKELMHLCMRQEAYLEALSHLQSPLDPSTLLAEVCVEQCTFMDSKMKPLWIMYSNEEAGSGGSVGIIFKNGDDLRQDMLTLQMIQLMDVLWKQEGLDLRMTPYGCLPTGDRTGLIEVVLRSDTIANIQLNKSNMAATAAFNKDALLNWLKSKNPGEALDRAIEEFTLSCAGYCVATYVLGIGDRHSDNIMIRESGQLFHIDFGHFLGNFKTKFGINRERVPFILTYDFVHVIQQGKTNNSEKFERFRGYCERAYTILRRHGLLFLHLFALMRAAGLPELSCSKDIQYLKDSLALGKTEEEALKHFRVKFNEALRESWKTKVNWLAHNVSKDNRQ

[5] = Apparent permeability from apical to basolateral side of human Caco2 cells; format: ADME, cell-based; details: Caco-2, read-out: permeability
[6] = Fraction unbound in human plasma; format: ADME, cell-free
[7] = AUC in mouse at 30 umol/kg, po administered as propylene glycol; format: ADME, organism-based; details: plasma
[8] = target: T2, Phosphatidylinositol 4,5-bisphosphate 3-kinase catalytic subunit alpha isoform (Homo sapiens, UniProt P42336); experiment: Inhibition of PI3Kalpha mutant human BT474 cells assessed as inhibition of Akt phosphorylation at […] after 2 hrs; format: cell-based; details: bt-474
Target sequence in this assay (P42336 whole entry, looked up, canonical isoform): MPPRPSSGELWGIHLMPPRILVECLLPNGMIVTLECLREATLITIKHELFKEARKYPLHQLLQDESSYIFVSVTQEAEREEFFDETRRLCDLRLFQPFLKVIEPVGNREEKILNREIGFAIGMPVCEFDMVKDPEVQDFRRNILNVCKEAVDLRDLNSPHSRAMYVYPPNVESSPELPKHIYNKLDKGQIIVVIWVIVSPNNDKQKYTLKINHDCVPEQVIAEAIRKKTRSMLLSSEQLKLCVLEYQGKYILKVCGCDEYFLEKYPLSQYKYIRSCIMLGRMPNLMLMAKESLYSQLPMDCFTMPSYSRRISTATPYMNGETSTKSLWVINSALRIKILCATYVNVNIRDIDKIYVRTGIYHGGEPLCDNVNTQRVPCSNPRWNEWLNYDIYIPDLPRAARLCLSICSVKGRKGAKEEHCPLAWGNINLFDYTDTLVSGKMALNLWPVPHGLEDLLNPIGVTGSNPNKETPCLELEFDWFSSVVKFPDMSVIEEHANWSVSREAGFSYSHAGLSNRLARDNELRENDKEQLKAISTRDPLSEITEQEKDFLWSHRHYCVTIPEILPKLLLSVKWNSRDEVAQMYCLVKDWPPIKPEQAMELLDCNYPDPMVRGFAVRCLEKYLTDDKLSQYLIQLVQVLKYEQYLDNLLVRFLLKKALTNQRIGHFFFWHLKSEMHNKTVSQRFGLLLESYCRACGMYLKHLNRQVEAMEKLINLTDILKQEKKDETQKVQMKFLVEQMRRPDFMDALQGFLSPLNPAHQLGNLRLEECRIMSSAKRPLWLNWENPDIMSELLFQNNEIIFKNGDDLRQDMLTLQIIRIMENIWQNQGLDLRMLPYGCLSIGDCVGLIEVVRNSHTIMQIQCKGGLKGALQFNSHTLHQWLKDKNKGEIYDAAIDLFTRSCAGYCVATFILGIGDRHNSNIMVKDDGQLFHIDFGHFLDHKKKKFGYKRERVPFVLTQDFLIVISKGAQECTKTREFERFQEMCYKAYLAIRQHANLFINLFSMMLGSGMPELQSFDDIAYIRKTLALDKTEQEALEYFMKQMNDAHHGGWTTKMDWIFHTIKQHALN

[9] = Volume of distribution in mouse at 5 umol/kg, iv administered as bolus dose in 20 to 30% DMA in PBS; format: ADME, organism-based; details: in vivo
[10] = target: T3, Phosphatidylinositol 4,5-bisphosphate 3-kinase catalytic subunit beta isoform (Homo sapiens, UniProt P42338); experiment: Inhibition of PI3Kbeta in PTEN-null human MDA-MB-468 cells assessed as inhibition of Akt phosphorylation after 2 hrs; format: cell-based
[11] = Intrinsic clearance in cryopreserved human hepatocytes measured per 10^6 cells; format: ADME, cell-based, Hepatocyte; details: read-out: CLH
[12] = Oral bioavailability in mouse at 30 umol/kg administered as propylene glycol; format: ADME, organism-based; details: in vivo
[13] = target: T2, Phosphatidylinositol 4,5-bisphosphate 3-kinase catalytic subunit alpha isoform; experiment: Inhibition of human recombinant PI3Kalpha using PIP2 by Kinase-Glo Plus assay
Target sequence in this assay (P42336 whole entry, canonical isoform): as the sequence (P42336 whole entry, looked up, canonical isoform) above

[14] = Fraction unbound in dog plasma; format: ADME, cell-free, Canis lupus familiaris
[15] = target: T3, Phosphatidylinositol 4,5-bisphosphate 3-kinase catalytic subunit beta isoform; experiment: Inhibition of human recombinant PI3Kbeta using PIP2 by Kinase-Glo Plus assay
[16] = Clearance in mouse at 5 umol/kg, iv administered as bolus dose in 20 to 30% DMA in PBS; format: ADME, organism-based; details: in vivo
Mus musculus = experiment: Intrinsic clearance in mouse at 5 umol/kg, iv administered as bolus dose in 20 to 30% DMA in PBS; format: ADME, organism-based; details: in vivo

T3 sequence (P42338 whole entry, canonical isoform): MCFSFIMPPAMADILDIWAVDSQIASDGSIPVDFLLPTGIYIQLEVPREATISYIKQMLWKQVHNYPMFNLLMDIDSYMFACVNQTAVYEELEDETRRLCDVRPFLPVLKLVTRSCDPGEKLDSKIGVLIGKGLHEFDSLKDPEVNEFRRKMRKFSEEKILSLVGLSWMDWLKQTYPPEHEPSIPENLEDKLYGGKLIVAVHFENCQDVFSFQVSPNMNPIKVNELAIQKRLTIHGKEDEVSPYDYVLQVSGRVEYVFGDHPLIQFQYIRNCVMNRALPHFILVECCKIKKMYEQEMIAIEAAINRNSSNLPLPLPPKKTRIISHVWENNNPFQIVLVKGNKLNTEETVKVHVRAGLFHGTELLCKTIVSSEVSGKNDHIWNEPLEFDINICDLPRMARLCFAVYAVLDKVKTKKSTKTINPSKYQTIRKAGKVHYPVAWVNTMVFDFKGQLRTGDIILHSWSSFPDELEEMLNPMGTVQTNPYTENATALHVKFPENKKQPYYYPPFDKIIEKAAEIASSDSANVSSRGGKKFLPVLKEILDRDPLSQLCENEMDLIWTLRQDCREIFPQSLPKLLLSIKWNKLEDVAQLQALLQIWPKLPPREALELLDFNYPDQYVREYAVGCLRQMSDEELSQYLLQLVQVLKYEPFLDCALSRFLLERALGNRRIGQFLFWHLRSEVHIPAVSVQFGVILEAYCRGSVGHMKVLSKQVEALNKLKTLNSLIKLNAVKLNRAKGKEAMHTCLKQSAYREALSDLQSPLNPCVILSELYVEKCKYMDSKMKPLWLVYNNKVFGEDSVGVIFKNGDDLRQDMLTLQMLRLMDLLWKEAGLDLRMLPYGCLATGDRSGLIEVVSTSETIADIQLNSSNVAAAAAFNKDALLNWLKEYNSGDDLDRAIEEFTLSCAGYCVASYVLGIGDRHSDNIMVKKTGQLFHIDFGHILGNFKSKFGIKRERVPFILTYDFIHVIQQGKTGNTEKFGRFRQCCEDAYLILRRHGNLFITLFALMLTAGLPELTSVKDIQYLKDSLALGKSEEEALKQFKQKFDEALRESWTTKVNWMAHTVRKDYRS
Chain of Phosphatidylinositol 4,5-bisphosphate 3-kinase catalytic subunit gamma isoform (P48736 whole entry, canonical isoform): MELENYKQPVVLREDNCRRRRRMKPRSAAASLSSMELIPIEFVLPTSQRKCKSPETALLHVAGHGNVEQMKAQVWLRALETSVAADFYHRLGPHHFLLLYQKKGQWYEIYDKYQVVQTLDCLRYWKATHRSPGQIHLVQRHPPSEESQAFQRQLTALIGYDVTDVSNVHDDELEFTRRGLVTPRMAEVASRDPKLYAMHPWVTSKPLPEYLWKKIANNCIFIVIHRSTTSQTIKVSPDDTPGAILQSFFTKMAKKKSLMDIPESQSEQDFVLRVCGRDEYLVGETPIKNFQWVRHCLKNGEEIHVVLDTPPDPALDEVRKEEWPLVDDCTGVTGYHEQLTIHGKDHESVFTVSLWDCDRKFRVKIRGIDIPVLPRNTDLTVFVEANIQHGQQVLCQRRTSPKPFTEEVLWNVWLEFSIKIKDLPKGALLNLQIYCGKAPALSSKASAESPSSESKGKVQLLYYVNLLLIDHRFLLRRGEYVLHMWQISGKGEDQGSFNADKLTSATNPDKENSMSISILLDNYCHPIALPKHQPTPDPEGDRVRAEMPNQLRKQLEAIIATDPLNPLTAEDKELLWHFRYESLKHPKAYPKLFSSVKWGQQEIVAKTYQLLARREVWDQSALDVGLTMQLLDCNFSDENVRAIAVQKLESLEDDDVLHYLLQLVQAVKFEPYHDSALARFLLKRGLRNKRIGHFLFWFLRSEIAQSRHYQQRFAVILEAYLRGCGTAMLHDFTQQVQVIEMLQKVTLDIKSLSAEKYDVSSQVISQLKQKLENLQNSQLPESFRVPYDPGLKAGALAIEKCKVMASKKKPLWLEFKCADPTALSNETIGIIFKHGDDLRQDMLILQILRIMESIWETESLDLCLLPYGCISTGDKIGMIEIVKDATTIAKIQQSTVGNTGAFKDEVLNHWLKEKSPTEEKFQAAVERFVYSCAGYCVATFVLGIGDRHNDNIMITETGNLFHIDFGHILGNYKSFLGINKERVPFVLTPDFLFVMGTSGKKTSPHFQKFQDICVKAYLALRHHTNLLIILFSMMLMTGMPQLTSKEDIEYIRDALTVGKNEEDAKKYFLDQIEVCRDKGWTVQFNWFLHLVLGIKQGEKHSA

SMILES	IC50 [1] [nM]	fraction unbound [2]	logD [3]	IC50 [4] [nM]	Papp A→B [5] [×10⁻⁶ cm/s]	fraction unbound [6]	AUC [7] [µM·h]	IC50 [8] [nM]	Vd [9] [L/kg]	IC50 [10] [nM]	hepatocyte CLint [11] [µL/min/1e6 cells]	bioavailability [12] [%]	IC50 [13] [nM]	fraction unbound [14]	IC50 [15] [nM]	clearance [16] [mL/min/kg]	clearance (Mus musculus) [mL/min/kg]
C[C@@H](Nc1ccc(F)c(F)c1)c1cc(C(=O)N(C)C)cc2c(=O)cc(N3CCOCC3)oc12	2500	0.25	1.9	32	6.5	0.27	0.8	2500	1.7	17	< 3	19	170	0.34	7	112	57
C[C@@H](Nc1cccc(Cl)c1F)c1cc(C(=O)N(C)C)cc2c(=O)cc(N3CCOCC3)oc12	320		2.3	22	21	0.15	0.9	500	1.7	20	< 3	19	28	0.26	5	81	64
C[C@@H](Nc1cc(F)cc(Cl)c1)c1cc(C(=O)N(C)C)cc2c(=O)cc(N3CCOCC3)oc12	210	0.04	2.8	28	11	0.06	0.8	170	3.5		12	23	25	0.14		134	147
C[C@@H](Oc1cc(F)cc(F)c1)c1cc(C(=O)N(C)C)cc2c(=O)cc(N3CCOCC3)oc12	13000		2.2	160	31			7400		132	7		970		17		
C[C@H](c1cc(C(=O)N(C)CCO)cc2c(=O)cc(N3CCOCC3)oc12)N(C)c1cc(F)cc(F)c1	1200	0.15	2.1	53	7	0.17	0.7	4700			< 3		180	0.23			
C[C@H](c1cc(C(=O)N2CCC(O)CC2)cc2c(=O)cc(N3CCOCC3)oc12)N(C)c1cc(F)cc(F)c1	1600	0.18	2.4	82	4.6	0.17	0.8	4800		12	< 3		370	0.23	7		
CC(Nc1cccc(F)c1F)c1cc(C(=O)N(C)C)cc2c(=O)cc(N3CCOCC3)oc12 (racemic)	4200		1.9	76	13			2200		24	< 3		370		13		
CC(Nc1cc(F)ccc1F)c1cc(C(=O)N(C)C)cc2c(=O)cc(N3CCOCC3)oc12 (racemic)	6000		1.8	150	12			7000		60	6		450		19		
CC(Nc1cc(F)cc(F)c1)c1cc(C(=O)N(C)CCO)cc2c(=O)cc(N3CCOCC3)oc12 (racemic)	530		1.5	62	1			6900		15	< 3		90		10		
CC(Nc1cc(F)cc(F)c1)c1cc(C(=O)N2CCCC2)cc2c(=O)cc(N3CCOCC3)oc12 (racemic)	700		2.7	50	8.5			400		2	6		98		9		
CC(Nc1cc(F)cc(F)c1)c1cc(C(=O)N2CCOCC2)cc2c(=O)cc(N3CCOCC3)oc12 (racemic)	2400		1.7	115	4.8			6000		33	< 3		300		11		
CC(Nc1cc(F)cc(F)c1)c1cc(C(=O)N2CCC(O)CC2)cc2c(=O)cc(N3CCOCC3)oc12 (racemic)	830		1.8	90	1			6400		17	< 3		230		11		
COCCNC(=O)c1cc(C(C)Nc2cc(F)cc(F)c2)c2oc(N3CCOCC3)cc(=O)c2c1 (racemic)	520		2.1	54	0.28			13000		31	< 3		57		9		
